Read-outs that look alike come from different tables or passages of the source. Starred links: 1 amine or outer side, 2 acyl side, 3 side chain; linkers in the order of their positions; H or OH if unused. Non-standard residues stand in square brackets, D forms with d. Residues, ends and D or L forms follow the SMILES beside them. Groups on a side chain read outwards from the residue. *: point of attachment. C18 diacid = O=C(O)CCCCCCCCCCCCCCCCC(=O)*; γGlu = O=C(O)[C@H](CCC(=O)[*:2])N[*:1]; Palmitoyl = CCCCCCCCCCCCCCCC(=O)*; AEEA = NCCOCCOCC(=O)O; Aib = CC(C)(N)C(=O)O
Columns and labels:
[1] = molecular target: T1, human CRF2α receptor (Homo sapiens, UniProt Q13324); experiment: cAMP agonism at human CRF2 α receptor in TeloHEAC cells (Example 7); format: cell-based; conditions: cAMP HTRF, TeloHEAC cells stably expressing human CRF2 α
T1 construct: expressed in transfected cells; host or cells: TeloHEAC
T1 sequence (Q13324 1-411): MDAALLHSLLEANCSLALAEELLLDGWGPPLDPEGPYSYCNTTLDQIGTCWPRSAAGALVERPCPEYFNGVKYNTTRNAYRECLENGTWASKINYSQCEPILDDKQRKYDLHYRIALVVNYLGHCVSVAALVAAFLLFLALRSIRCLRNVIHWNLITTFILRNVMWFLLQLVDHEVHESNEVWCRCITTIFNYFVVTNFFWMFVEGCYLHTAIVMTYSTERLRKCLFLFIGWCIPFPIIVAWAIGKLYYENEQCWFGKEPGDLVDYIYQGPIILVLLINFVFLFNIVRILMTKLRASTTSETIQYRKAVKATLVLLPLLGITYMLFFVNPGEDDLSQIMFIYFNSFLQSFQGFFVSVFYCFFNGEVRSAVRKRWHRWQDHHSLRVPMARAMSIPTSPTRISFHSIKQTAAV
How it was run: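 Percent activation was referenced to 1000 nM UCN2 (100%), and EC50 values taken as concentrations giving half of maximal response. The read-out was a homogeneous time-resolved fluorescence cAMP kit, fluorescence ratio 665/620 nm. Thawed cells (2000/well) saw compound for 30 min at RT in buffer with 2 mM IBMX and 0%/0.1% HSA.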

[2] = system: rat CRF2R α receptor; experiment: cAMP agonism at rat CRF2R α receptor in A7R5 rat aortic smooth muscle cells (Example 8); format: cell-based; conditions: cAMP HTRF, A7R5 rat aortic smooth muscle cell line, 0% HSA
Method: Cells were grown in a T175 culture flask placed at 37° C. to near confluence in medium (DMEM/10% FBS) and collected in 2 ml vials in cell culture medium containing 10% DMSO in a concentration of 10-50 million cells/ml. Each vial contained 1.8 ml cells. The vials were slowly frozen to −80° C. in isopropanol and then transferred in liquid nitrogen for storage. Prior to use, frozen cells were thawed quickly at 37° C. and washed (5 min at 900 rpm) with 20 ml cell buffer (1×HBSS; 20 mM HEPES; 0% or 0.1% HSA). Cells were resuspended in assay buffer (cell buffer plus 2 mM IBMX) and adjusted to a cell density of 1 million cells/ml. For measurement, 5 μl cells (final […]) and 5 μL of test compound were added to a 384-well plate, followed by incubation for 30 minutes at room temperature.
The CAMP content of cells was determined using a kit from Cisbio Corp. (cat. no. 62AM4PEC) based on HTRF (Homogenous Time Resolved Fluorescence). After addition of HTRF reagents diluted in lysis buffer (kit components), the plates were incubated for 1 h, followed by measurement of the fluorescence ratio at 665/620 nm. The percent activity value (E %) was calculated by setting 1000 nM of urocortin 2 (UCN2) as 100%. The in vitro potency of the compounds was quantified by determining the concentrations that caused 50% activation of maximal response (EC50).
Using the procedure described in Example 7, the activity of the compounds at the rat CRF2R α receptor was assessed. The A7R5 rat aortic smooth muscle cell line was used in this study.

[3] = 0% HSA, read-out: EC50 [nM], 0% HSA
[4] = 0.1% HSA, read-out: EC50 [nM], 0.1% HSA

EC50 [1, 3] [nM]	EC50 [2] [nM]	EC50 [1, 4] [nM]	Structure (SMILES)
3.77	47.3	–	CC[C@H](C)[C@H](N)C(=O)N[C@H](C(=O)N[C@@H](CC(C)C)C(=O)N[C@@H](CO)C(=O)N[C@@H](CC(C)C)C(=O)N[C@@H](CC(=O)O)C(=O)N[C@H](C(=O)N1CCC[C@H]1C(=O)N[C@H](C(=O)N[C@@H](CCCCN)C(=O)N[C@@H](CC(C)C)C(=O)N[C@@H](CCCCNC(=O)COCCOCCNC(=O)COCCOCCNC(=O)CC[C@H](NC(=O)CCCCCCCCCCCCCCCCC(=O)O)C(=O)O)C(=O)N[C@@H](CCC(N)=O)C(=O)N[C@H](C(=O)N[C@@H](CC(C)C)C(=O)N[C@@H](CC(C)C)C(=O)N[C@@H](CCC(=O)O)C(=O)N[C@@H](CCC(N)=O)C(=O)N[C@@H](C)C(=O)N[C@@H](CCCCN)C(=O)N[C@@H](CCC(N)=O)C(=O)N[C@@H](CCCCN)C(=O)NC(C)(C)C(=O)N[C@@H](CC(C)C)C(=O)N[C@@H](CCCCN)C(=O)N[C@@H](C)C(=O)N[C@@H](CCC(N)=O)C(=O)N[C@@H](C)C(=O)N[C@@H](CCC(=O)O)C(=O)N[C@H](C(=O)N[C@@H](CC(N)=O)C(=O)N[C@H](C(=O)N[C@@H](CCCNC(=N)N)C(=O)N[C@H](C(=O)N[C@@H](CC(C)C)C(=O)N[C@@H](CCC(=O)O)C(=O)N[C@@H](CCCNC(=N)N)C(=O)N[C@H](C(N)=O)C(C)C)[C@@H](C)CC)C(C)C)[C@@H](C)O)[C@@H](C)CC)[C@@H](C)CC)C(C)C)C(C)C [compound 45] (H-IVLSLDVPIKLK([AEEA-AEEA-γGlu-C18 diacid])QILLEQAKQK[Aib]LKAQAETNVRILERV-NH2)
0.12	1.14	2.53	CC[C@H](C)[C@H](NC(C)=O)C(=O)N[C@H](C(=O)N[C@@H](CC(C)C)C(=O)N[C@@H](CO)C(=O)N[C@@H](CC(C)C)C(=O)N[C@@H](CC(=O)O)C(=O)N[C@@H](C(=O)N1CCC[C@H]1C(=O)N[C@H](C(=O)N[C@@H](CCCCN)C(=O)N[C@@H](CC(C)C)C(=O)N[C@@H](CCCCNC(=O)COCCOCCNC(=O)COCCOCCNC(=O)CC[C@H](NC(=O)CCCCCCCCCCCCCCCCC(=O)O)C(=O)O)C(=O)N[C@@H](CCC(N)=O)C(=O)N[C@H](C(=O)N[C@@H](CC(C)C)C(=O)N[C@@H](CC(C)C)C(=O)N[C@@H](CCC(=O)O)C(=O)N[C@@H](CCC(N)=O)C(=O)N[C@@H](C)C(=O)N[C@@H](CCCNC(=N)N)C(=O)N[C@@H](CCC(N)=O)C(=O)N[C@@H](CCCCN)C(=O)NC(C)(C)C(=O)N[C@@H](CCC(N)=O)C(=O)N[C@@H](CCCNC(=N)N)C(=O)N[C@@H](CCC(=O)O)C(=O)N[C@@H](CCC(N)=O)C(=O)N[C@@H](C)C(=O)N[C@@H](CCC(=O)O)C(=O)N[C@@H](CCCCN)C(=O)N[C@@H](CC(N)=O)C(=O)N[C@@H](CCCCN)C(=O)N[C@@H](CCC(N)=O)C(=O)N[C@H](C(=O)N[C@@H](CC(C)C)C(=O)N[C@@H](CCC(=O)O)C(=O)N[C@@H](CCC(N)=O)C(=O)N[C@H](C(N)=O)C(C)C)[C@@H](C)CC)[C@@H](C)CC)[C@@H](C)CC)C(C)C)C(C)C [compound 157] (Ac-IVLSLD[dV]PIKLK([AEEA-AEEA-γGlu-C18 diacid])QILLEQARQK[Aib]QREQAEKNKQILEQV-NH2)
0.42	5.29	5.63	CC[C@H](C)[C@H](NC(C)=O)C(=O)N[C@H](C(=O)N[C@@H](CC(C)C)C(=O)N[C@@H](CO)C(=O)N[C@@H](CC(C)C)C(=O)N[C@@H](CC(=O)O)C(=O)N[C@@H](C(=O)N1CCC[C@H]1C(=O)N[C@H](C(=O)N[C@@H](CCCCN)C(=O)N[C@@H](CC(C)C)C(=O)N[C@@H](CCCCNC(=O)COCCOCCNC(=O)COCCOCCNC(=O)CC[C@H](NC(=O)CCCCCCCCCCCCCCCCC(=O)O)C(=O)O)C(=O)N[C@@H](CCC(N)=O)C(=O)N[C@H](C(=O)N[C@@H](CC(C)C)C(=O)N[C@@H](CC(C)C)C(=O)N[C@@H](CCC(=O)O)C(=O)N[C@@H](CCC(N)=O)C(=O)N[C@@H](CCC(=O)O)C(=O)N[C@@H](CCCNC(=N)N)C(=O)N[C@@H](CCC(N)=O)C(=O)N[C@@H](CCCCN)C(=O)NC(C)(C)C(=O)N[C@@H](CCC(N)=O)C(=O)N[C@@H](CCCNC(=N)N)C(=O)N[C@@H](CCC(=O)O)C(=O)N[C@@H](CCC(N)=O)C(=O)N[C@@H](C)C(=O)N[C@@H](CCC(=O)O)C(=O)N[C@@H](CCCCN)C(=O)N[C@@H](CC(N)=O)C(=O)N[C@@H](CCCCN)C(=O)N[C@@H](CCC(N)=O)C(=O)N[C@H](C(=O)N[C@@H](CC(C)C)C(=O)N[C@@H](CCC(=O)O)C(=O)N[C@@H](CCC(N)=O)C(=O)N[C@H](C(N)=O)C(C)C)[C@@H](C)CC)[C@@H](C)CC)[C@@H](C)CC)C(C)C)C(C)C [compound 158] (Ac-IVLSLD[dV]PIKLK([AEEA-AEEA-γGlu-C18 diacid])QILLEQERQK[Aib]QREQAEKNKQILEQV-NH2)
1.27	15.6	27.4	CC[C@H](C)[C@H](NC(C)=O)C(=O)N[C@H](C(=O)N[C@@H](CC(C)C)C(=O)N[C@@H](CO)C(=O)N[C@@H](CC(C)C)C(=O)N[C@@H](CC(=O)O)C(=O)N[C@@H](C(=O)N1CCC[C@H]1C(=O)N[C@H](C(=O)N[C@@H](CCCCN)C(=O)N[C@@H](CC(C)C)C(=O)N[C@@H](CCCCNC(=O)COCCOCCNC(=O)COCCOCCNC(=O)CC[C@H](NC(=O)CCCCCCCCCCCCCCCCC(=O)O)C(=O)O)C(=O)N[C@@H](CCC(N)=O)C(=O)N[C@H](C(=O)N[C@@H](CC(C)C)C(=O)N[C@@H](CC(C)C)C(=O)N[C@@H](CCC(=O)O)C(=O)N[C@@H](CCC(N)=O)C(=O)N[C@@H](CCC(=O)O)C(=O)N[C@@H](CCCNC(=N)N)C(=O)N[C@@H](CCC(N)=O)C(=O)N[C@@H](CCC(=O)O)C(=O)NC(C)(C)C(=O)N[C@@H](CCC(N)=O)C(=O)N[C@@H](CCCNC(=N)N)C(=O)N[C@@H](CCC(=O)O)C(=O)N[C@@H](CCC(N)=O)C(=O)N[C@@H](C)C(=O)N[C@@H](CCC(=O)O)C(=O)N[C@@H](CCCCN)C(=O)N[C@@H](CC(N)=O)C(=O)N[C@@H](CCCCN)C(=O)N[C@@H](CCC(N)=O)C(=O)N[C@H](C(=O)N[C@@H](CC(C)C)C(=O)N[C@@H](CCC(=O)O)C(=O)N[C@@H](CCC(N)=O)C(=O)N[C@H](C(N)=O)C(C)C)[C@@H](C)CC)[C@@H](C)CC)[C@@H](C)CC)C(C)C)C(C)C [compound 159] (Ac-IVLSLD[dV]PIKLK([AEEA-AEEA-γGlu-C18 diacid])QILLEQERQE[Aib]QREQAEKNKQILEQV-NH2)
–	0.61	–	CCCCCCCCCCCCCCCC(=O)N[C@@H](CCC(=O)NCCCC[C@H](NC(=O)[C@H](CC(C)C)NC(=O)[C@H](CCCCN)NC(=O)[C@@H](NC(=O)[C@@H]1CCCN1C(=O)[C@H](NC(=O)[C@H](CC(=O)O)NC(=O)[C@H](CC(C)C)NC(=O)[C@H](CO)NC(=O)[C@H](CC(C)C)NC(=O)[C@@H](NC(=O)[C@@H](N)[C@@H](C)CC)C(C)C)C(C)C)[C@@H](C)CC)C(=O)N[C@@H](CCC(N)=O)C(=O)N[C@@H](CCCCN)C(=O)N[C@@H](CC(C)C)C(=O)N[C@@H](CC(C)C)C(=O)N[C@@H](CCCCN)C(=O)N[C@@H](CCC(N)=O)C(=O)N[C@@H](CCC(N)=O)C(=O)N[C@@H](CCCNC(=N)N)C(=O)N[C@@H](CCC(N)=O)C(=O)N[C@@H](CCCNC(=N)N)C(=O)N[C@@H](CCCCN)C(=O)N[C@@H](CCC(=O)O)C(=O)N[C@@H](CCCNC(=N)N)C(=O)N[C@@H](CCC(N)=O)C(=O)N[C@@H](CCC(N)=O)C(=O)N[C@@H](C)C(=O)N[C@@H](CCC(=O)O)C(=O)N[C@@H](CCCCN)C(=O)N[C@@H](CC(N)=O)C(=O)N[C@@H](CCCCN)C(=O)N[C@@H](CCCNC(=N)N)C(=O)N[C@H](C(=O)N[C@@H](CC(C)C)C(=O)N[C@@H](CCC(=O)O)C(=O)N[C@@H](CCCNC(=N)N)C(=O)N[C@H](C(N)=O)C(C)C)[C@@H](C)CC)C(=O)O [compound 227] (H-IVLSLD[dV]PIKLK([γGlu-Palmitoyl])QKLLKQQRQRKERQQAEKNKRILERV-NH2)

Reference: patent US12679878B2, “CRF2 receptor agonists and their use in therapy” (SANOFI, priority 2020, dated 2026)
